According to patent US12616713B2, “Methods for enhancing vascular density” (priority 2016, dated 2026):

Key:
[1] = test system: human aortic endothelial cells (HAECs); test: Tube formation assay, HAECs; type: cell-based
Description: Formation of tube networks was assessed as described before (Borradaile and Pickering, 2009, Aging Cell 8, 100-112). ECs were seeded at 10,000 cells per well in a 24-well plate (Corning) coated with 150 μL Cultrex reduced growth factor basement membrane extract (Trevigen). The cells were supplemented with C2C12 CM or EBM-2 medium containing VEGF (30 ng/mL) or FGF (30 ng/mL). […] Following an 18 h-incubation, resulting tube networks were analyzed by light microscopy (Nikon Eclipse TiE). For tube formation assays with H2O2 treatment, cells were incubated with 150 μM H2O2 for 1 h before seeding and imaged after 10 h-incubation. The number of branch points and total length of tubule networks were quantified by ImageJ software.

C57BL/6J mice [2] = test: TUNEL and CD31 co-staining of quadriceps capillaries; type: in vivo, mouse; conditions: aged quadriceps tissue, four weeks treatment; untreated 42%
Description: Freshly isolated whole quadriceps and gastrocnemius muscle samples were mounted in OCT compound (Tissue-Tek), placed in an isopentane bath and slowly cooled in liquid nitrogen. Transverse sections at 20 μm-thickness were sectioned on a cryostat (Leica). The sections were fixed in pre-cooled acetone (−20° C.) for 10 min and washed with PBS. Slides were then blocked in normal goat serum and 5% Blocking Reagent (PerkinElmer) in PBST (PBS with 0.1% Triton-X) for 1 h at room temperature, and then incubated with anti-CD31 (ab56299, Abcam) and anti-Laminin (L9393, Sigma), GFP (ab6556, Abcam) or SIRT1 (HPA006295, Sigma) antibodies diluted in blocking buffer overnight at 4° C. Slides were washed with PBST and then incubated with anti-rat Alexa Fluor 488-conjugated (Life Technologies) and anti-rabbit Alexa Fluor 594-conjugated (Life Technologies) antibodies diluted to 1:500 in blocking buffer for 2 h at room temperature. Slides were washed again with PBST and mounted with Fluoroshield with DAPI mounting medium (Sigma). Images were acquired using a confocal fluorescence microscope (Nikon A1). Quantification of capillaries and capillary density were performed using ImageJ software. TUNEL staining was performed in muscle sections using in situ BrdU-Red DNA fragmentation (TUNEL) assay kit (Abcam) as per manufacturer's protocol.

SIRT1 = SIRT1 protein levels in HUVECs (Western blot); type: cell-based, human; conditions: NaHS 0.1 mM and/or NMN 0.5 mM
Description: SDS-PAGE and Western blot analysis were performed according to standard procedures and detected with the ECL detection kit (Bio-rad, Australia). For Western blot analysis antibodies directed against SIRT1 (Sigma), SIRT3 (CST), SIRT6 (SantaCruz), eNOS (Cell Signaling Technology or CST), cleaved Notch1 (CST), total OXPHOS cocktail (Abcam), PGC-1α (Millipore), VEGF (Abcam), VEGFR2 (Abcam), phospho-VEGFR2 (Millipore), Actin (Cell Signaling Technology), Tubulin (Sigma), 14-3-3 (Cell Signaling Technology), GAPDH (SantaCruz) were used. Quantification of band intensities by densitometry was carried out using ImageJ software.

C57BL/6J mice [3] = test: Metabolic chambers (CLAMS) oxygen consumption; type: in vivo, mouse
Description: Metabolic chambers (CLAMS™, Columbus Instruments, Columbus, OH) were used to perform whole-body measurements of metabolic function. Following acclimatization to the metabolic chambers, individually housed mice were monitored continuously over 48 h to determine oxygen consumption, carbon dioxide production, respiratory exchange ratio, energy expenditure, food intake, water intake and activity. Body composition (fat mass, lean mass, and total body water) was measured by EchoMRI (Echo MRI™ 900).

HAECs = test: Spheroid sprouting assay, HAECs; type: cell-based, human
Description: (§1) ECs spheroids were generated as described previously (Korff and Augustin, 1998, J Cell Biol 143, 1341-1352). ECs (1000 cells per spheroid) were suspended in EGM-2 medium containing 20% methocel (viscosity: 4000 cps, Sigma) and seeded in non-adherent round-bottom 96-well plates (Sigma). Under these conditions all suspended cells contributed to the formation of a single spheroid. The spheroids were harvested after 24 h embedded into collagen gels. Sprouting was initiated by adding C2C12 CM or EBM-2 medium containing VEGF (50 ng/mL). NMN (0.5 mM), NaHS (0.1 mM), DAPT (20 μM, Cayman Chemical) or SU5416 (10 μM, Sigma) were added to the media wherever mentioned. Angiogenic activity was quantified by measuring the sprout length that had grown out of each spheroid analyzing 8-10 spheroids per group.

[4] = test system: MLECs from WT and ESKO mice; test: Spheroid sprouting assay, MLECs; type: cell-based, mouse; conditions: WT versus ESKO MLECs, C2C12 CM, NMN 0.5 mM
Description: as §1

HUVECs = test: Cell apoptosis assay, HUVECs exposed to H2O2; type: cell-based, human
Description: HUVECs were treated with PBS (vehicle), NaHS (100 μM), NMN (500 μM) or NMN+NaHS for 6 h, followed by exposure to H2O2 (600 μM) for another 4 h. After treatments, the number of apoptotic cells was determined using Annexin V-FITC apoptosis detection kit (eBioscience) as per manufacturer's instructions. Briefly, cells were collected by trypsinization and centrifugation at 1500 rpm for 5 minutes, followed by washing cell pellet twice with cold PBS and resuspending cell pellet in 1× Annexin-binding buffer. Then, 5 μL of Annexin-V FITC was added to 195 μL of cell suspension and incubated at room temperature for 15 min in the dark. After the incubation, cells were centrifuged, resuspended in 195 μL of 1× Annexin-binding buffer and then 5 μL of propidium iodide working solution was added. After mixing gently, the fluorescence intensity was detected with a flow cytometry (FACSCanto II Analyzer, BD Biosciences) at emission at 530 nm and 575 nm and excitation at 488 nm. […]

[5] = NMN and VEGF (30 ng/mL) cotreatment of HAECs, compared to VEGF alone

## NC(=O)c1ccc[n+]([C@@H]2O[C@H](COP(=O)([O-])O)[C@@H](O)[C@H]2O)c1 [NMN, nicotinamide mononucleotide]
[1]; NMN 10 μM, 100 μM or 500 μM versus PBS
  number of branch points and total length of tubes: steadily increased
[1]; [5]
  increase in number of branch points: 32%
  increase in tubule length: 15%
[1]; NMN itself, without VEGF
  increase in number of branch points: 25%
[1]; NT or SIRT1 siRNA, VEGF 30 ng/mL, NMN 0.5 mM
  ability of NMN to stimulate tube formation, dependence on SIRT1: SIRT1-dependent
[1]; Scr or SIRT1 siRNA, NMN 500 μM
  effects of NMN on VEGF-mediated tube formation after knockdown of SIRT1: completely blocked by knockdown of SIRT1
[1]; T3 or T6 siRNA, VEGF 30 ng/mL, +/- NMN
  VEGF-mediated tube formation after knockdown of SIRT3 and SIRT6: partially rescued
[1]; time-lapse videos, extended 18 h period
  disintegration of tubes: prevented the disintegration of tubes
C57BL/6J mice [2]
  number of capillaries with apoptotic cells: 17%
SIRT1
  SIRT1 protein levels: increased SIRT1 protein levels
C57BL/6J mice [3]; dark cycle
  oxygen consumption higher than non-treated control mice: 23%
C57BL/6J mice [3]; light cycle
  oxygen consumption higher than non-treated control mice: 30%
HAECs; NT or SIRT1 siRNA, VEGF 50 ng/mL, NMN 0.5 mM
  ability of NMN to stimulate spheroid sprouting, dependence on SIRT1: SIRT1-dependent
HAECs; SU5416 10 μM plus NMN 0.5 mM
  rescue of SU5416-blocked sprouting: not rescued
HAECs; T3 or T6 siRNA, VEGF, NMN 0.5 mM
  VEGF-mediated spheroid sprouting after knockdown of SIRT3 and SIRT6: partially rescued
[4]
  ability of NMN to stimulate spheroid sprouting, dependence on SIRT1: SIRT1-dependent
HUVECs; NMN 500 μM 6 h, then H2O2 600 μM 4 h
  percentage of cells undergoing early apoptosis: reduced the percentage of cells undergoing early apoptosis
HUVECs; NaHS 0.1 mM and/or NMN 0.5 mM 6 hrs, then H2O2 600 μM 4 hrs
  reduction of apoptosis in response to H2O2: 13%
